Laboratory results: patent US20200270294A1, “IMMUNOSTIMULATORY ADJUVANTS AND USES THEREOF” (TURUN YLIOPISTO, priority 2015, published 2020)

Columns and labels:
[1] = tested on: birch-induced production of IL-4 in PBMC; assay: Birch allergen (Bet v) induced IL-4 production in PBMC cultures of birch allergic subjects; format: cell-based, human; details: for suppression of birch-induced production of IL-4: Bet v 50 μg/ml, 72 h; for in vitro activity (PBMC model): screen of oligovalent β-(1→2) mannosides
Excerpt: (§1) During pollen season, 14 adult birch allergic subjects with allergic rhinoconjunctivitis (12 females and two males) were enrolled in the study (mean age 42.5 years, SD 12.4 years; mean birch-specific IgE (Immunocap, Thermo Fisher Scientific Phadia, Uppsala, Sweden) 36.1 kU/1, SD 31.5 kU/1). They were selected for the study from an earlier cohort based on good birch induced IL-4 responses during pollen season. All samples were taken after informed consent. The study was approved by the local ethics committee.
Peripheral blood mononuclear cells (PBMC) were isolated by Ficoll-Paque density gradient centrifugation (Ficoll-Paque PLUS, GE Healthcare BioSciences AB, Uppsala, Sweden) from heparinized blood samples from study subjects during pollen season. The PBMC were washed twice with Hanks' balanced salt solution (HBSS) buffered with NaHCO3 (pH 7.4) and resuspended in RPMI-1640 culture medium (Invitrogen Co., Carlsbad, Calif., USA) supplemented with 5% autologous serum, 2.5 mM L-glutamine (Sigma-Aldrich Co., St. Louis, Mo.) and 100 μg/ml gentamycin sulfate (Biological Industries Ltd., Kibbutz Beit Haemek, Israel) and applied on 48-well flat-bottomed cell culture plates (Costar, Corning Inc., New York, United States) at a density of […]. Cells were co-cultured in the presence of birch allergen (50 μg/ml, Betula verrucosa, Bet v, Aquagen, ALK-Abellò A/S, Horsholm, Denmark) and compounds 1, 2, 3 and MPL with concentrations 1, 10 and 100 μg/ml and adjuvant CpG-ODN with concentrations 2, 20 and 200 μg/ml to achieve equal molarities. Medium alone served as an unstimulated control. All incubations were performed at +37° C. in humidified atmosphere with 5% CO2. Supernatants from cultures performed in duplicate were collected 72 h after beginning of the stimulation and stored at −70° C.
The cytokines IL-4 and TNF in supernatants were measured with highsensitivity human cytokine Lincoplex kits (LINCO Research, St. Charles, Mo., USA). The assays were performed in accordance with the manufacturer's protocol by employing Luminex technology.
(§2) Wilcoxon's Signed Rank test was used to test statistical significance in PBMC experiments. Single mice groups were compared by the nonparametric Mann-Whitney U-test using GraphPad Prism software (v.5, GraphPad Software Inc., La Jolla, Calif., USA). Data are expressed as mean±SEM and P-values of <0.05 are considered statistically significant.

[2] = tested on: production of pro-inflammatory cytokine TNF in PBMC; assay: TNF production in PBMC cultures stimulated with Bet v; format: cell-based, human; details: 100 μg/ml (also printed 100 l/ml), Bet v 50 μg/ml, 72 h
Excerpt: as §1
Peripheral blood mononuclear cells (PBMC) were isolated by Ficoll-Paque density gradient centrifugation (Ficoll-Paque PLUS, GE Healthcare BioSciences AB, Uppsala, Sweden) from heparinized blood samples from study subjects during pollen season. […]
The cytokines IL-4 and TNF in supernatants were measured with highsensitivity human cytokine Lincoplex kits (LINCO Research, St. Charles, Mo., USA). […]
Wilcoxon's Signed Rank test was used to test statistical significance in PBMC experiments. […] Data are expressed as mean±SEM and P-values of <0.05 are considered statistically significant.

B16 melanoma cells = assay: In vivo model of cancer immunotherapy: B16 melanoma tumor growth in mice; set-up: species or system C57BL/6 mice
Experimental: as §2
3*10^6 B16 melanoma cells in 100 μl PBS were injected s.c. into the right flank of seven-week-old female C57BL/6 mice. Compound 3 was given i.p. 50 μg/injection in 200 μl PBS five times at 3-day intervals, starting on day 0. Each treatment group contained 10 mice. Tumor volumes were calculated using the formula 0.5*length*width^2. Animals were sacrificed when tumor volumes reached 800 mm^3. Animal experimentations were made following the procedures accepted by Eteli-Suomen Aluehallintavirasto (permission ESAVI/480/Apr. 10.2007/2016).

[3] = 10 μg/ml adjuvant, PBMC of 14 birch allergic patients
[4] = 100 g/ml or 100 l/ml as printed (highest concentration, b131: 100 μg/ml), PBMC

SMILES | suppression of birch-induced production of IL-4 [1, 3] | suppression of birch-induced production of IL-4 [1, 4] | in vitro activity (PBMC model) [1] | production of pro-inflammatory cytokine TNF [2] | tumor volume as compared to control mice (B16 melanoma cells; Day 9, i.p. 50 μg/injection five times at 3-day intervals) | start of tumor growth as compared to control (B16 melanoma cells; i.p. 50 μg/injection five times at 3-day intervals, starting on day 0) | tumor growth until Day 9 as compared to control (B16 melanoma cells; i.p. 50 μg/injection five times at 3-day intervals, until Day 9)
CC(=O)OC[C@H]1O[C@@H](O[C@@H]2[C@@H](OCCCn3cc(COCC(COCc4cn(CCCO[C@H]5O[C@H](COC(C)=O)[C@@H](OC(C)=O)[C@H](OC(C)=O)[C@@H]5O[C@@H]5O[C@H](COC(C)=O)[C@@H](OC(C)=O)[C@H](OC(C)=O)[C@@H]5OC(C)=O)nn4)OCc4cn(CCCO[C@H]5O[C@H](COC(C)=O)[C@@H](OC(C)=O)[C@H](OC(C)=O)[C@@H]5O[C@@H]5O[C@H](COC(C)=O)[C@@H](OC(C)=O)[C@H](OC(C)=O)[C@@H]5OC(C)=O)nn4)nn3)O[C@H](COC(C)=O)[C@@H](OC(C)=O)[C@@H]2OC(C)=O)[C@@H](OC(C)=O)[C@@H](OC(C)=O)[C@@H]1OC(C)=O (stereo partly drawn) [compound 2, 1,2,3-tris[1-(3-{O-(2,3,4,6-tetra-O-acetyl-β-D-mannopyranosyl)-(1-+2)-3,4,6-tri-O-acetyl-α-D-mannopyranosyloxy}propyl)-4-methyloxy-1,2,3-triazolyl]propane] | significant suppression | significant suppression | promising in vitro activities | Significantly increased production |  |  | 
CC(=O)OCC1O[C@@H](OC2C(OC(C)=O)[C@H](OC(C)=O)C(COC(C)=O)O[C@@H]2OCCOCCOCCn2cc(COCC(COCc3cn(CCOCCOCCO[C@H]4OC(COC(C)=O)[C@@H](OC(C)=O)C(OC(C)=O)C4O[C@@H]4OC(COC(C)=O)[C@@H](OC(C)=O)C(OC(C)=O)C4OC(C)=O)nn3)OCc3cn(CCOCCOCCO[C@H]4OC(COC(C)=O)[C@@H](OC(C)=O)C(OC(C)=O)C4O[C@@H]4OC(COC(C)=O)[C@@H](OC(C)=O)C(OC(C)=O)C4OC(C)=O)nn3)nn2)C(OC(C)=O)C(OC(C)=O)[C@@H]1OC(C)=O (stereo partly drawn) [compound 3, 1,2,3-tris(1-{2-[2-(2-[O-(2,3,4,6-tetra-O-acetyl-β-D-mannopyranosyl)-(1→2)-3,4,6-tri-O-acetyl-α-D-mannopyranosyloxy]ethoxy)-ethoxy]ethyl}-4-methyloxy-1,2,3-triazolyl)propane] | significant suppression | significant suppression | promising in vitro activities | Significantly increased production | statistically significantly smaller | started later | slower
CC(=O)OCC1O[C@H](OCCn2cc(COCC(COCc3cn(CCO[C@H]4OC(COC(C)=O)[C@@H](OC(C)=O)[C@H](OC(C)=O)C4O[C@@H]4OC(COC(C)=O)[C@@H](OC(C)=O)[C@H](OC(C)=O)C4OC(C)=O)nn3)OCc3cn(CCO[C@H]4OC(COC(C)=O)[C@@H](OC(C)=O)[C@H](OC(C)=O)C4O[C@@H]4OC(COC(C)=O)[C@@H](OC(C)=O)[C@H](OC(C)=O)C4OC(C)=O)nn3)nn2)C(O[C@@H]2OC(COC(C)=O)[C@@H](OC(C)=O)[C@H](OC(C)=O)C2OC(C)=O)[C@@H](OC(C)=O)[C@@H]1OC(C)=O (stereo partly drawn) [compound 1, 1,2,3-tris[1-(3-{0-(2,3,4,6-tetra-O-acetyl-β-D-mannopyranosyl)-(1→2)-3,4,6-tri-O-acetyl-α-D-mannopyranosyloxy}ethyl)-4-methyloxy-1,2,3-triazolyl]propane] |  |  | promising in vitro activities |  |  |  | 
